Consider 1 compound from patent US11278589B2, “Use of a cyclic tripeptide for improving cellular energy metabolism” (ASSISTANCE PUBLIQUE—HOPITAUX DE PARIS, priority 2015, dated 2022).

Molecules are shown by their SMILES. Positions of bridges follow the written chain, without caps; N, C: chain ends. Residues, ends and D or L forms follow the SMILES beside them.

The data set has as its system Human oocytes. As to the kind of experiment: Randomized prospective study in human IVF (fertilin study). The format is in vivo. The note with it: first step, 56 couples. The source says:
A clinical trial was begun in the IVF laboratory of the MAP Center of Cochin, on Sep. 8, 2014, on 66 couples, the average age being 34.3±4.2 years old for the women and 37.0±5.2 for their partners. It is a randomized, single-center prospective study of in vitro fertilization (IVF) carried out in the presence or absence of FEEc. The oocytes, recovered from their cumulus, were divided up into two groups alternately into one and then into the other according to their order of recovery. When all the oocytes were recovered, a technician who had not participated in the recovery of the cumuli determined by randomization which of the two groups was inseminated in the presence of FEEc and which served as control. One part of the oocytes is incubated in the standard culture medium (Global, JCD), the other part in this same medium supplemented with 100 μM FEEc.
The methodology of this study, represented diagrammatically in FIG. 9, is presented below. Human oocytes originating from women 18 to 43 years old were recovered by ovarian puncture after hormonal stimulation by gynecologists. They were divided up in a randomized manner into 2 groups: the oocytes incubated in the presence of a standard culture medium supplemented with 100 μM FEEc or of a standard culture medium (Global, JCD), then placed in an incubator at 37° C. under an atmosphere of 5% of CO2. […]

Regarding `N[C@H]1CSSC[C@@H](C(=O)O)NC(=O)[C@H](CCC(=O)O)NC(=O)[C@H](CCC(=O)O)NC(=O)[C@H](Cc2ccccc2)NC(=O)[C@H](CO)NC1=O` [FEEc, C-S-F-E-E-C] (H-CSFEEC-OH; disulfide 1-6), the adverse effect result is listed as “No adverse effect has been reported to date”.
